Where two headings read alike, the source gives them in different places. Starred links: 1 amine or outer side, 2 acyl side, 3 side chain; linkers in the order of their positions; H or OH if unused. Non-standard residues stand in square brackets, D forms with d. Residues, ends and D or L forms follow the SMILES beside them. Groups on a side chain read outwards from the residue. *: point of attachment. C20 diacid = O=C(O)CCCCCCCCCCCCCCCCCCC(=O)*; γGlu = O=C(O)[C@H](CCC(=O)[*:2])N[*:1]; Nle = CCCC[C@H](N)C(=O)O; AEEA = NCCOCCOCC(=O)O
Key:
[1] = target: T1, hCRHR2 (Homo sapiens, UniProt Q13324); assay: HTRF cAMP assay, determination of hCRHR2 potency (peptide libraries 5 conc., purified peptides 11 conc.); format: cell-based
T1 sequence (Q13324 1-411): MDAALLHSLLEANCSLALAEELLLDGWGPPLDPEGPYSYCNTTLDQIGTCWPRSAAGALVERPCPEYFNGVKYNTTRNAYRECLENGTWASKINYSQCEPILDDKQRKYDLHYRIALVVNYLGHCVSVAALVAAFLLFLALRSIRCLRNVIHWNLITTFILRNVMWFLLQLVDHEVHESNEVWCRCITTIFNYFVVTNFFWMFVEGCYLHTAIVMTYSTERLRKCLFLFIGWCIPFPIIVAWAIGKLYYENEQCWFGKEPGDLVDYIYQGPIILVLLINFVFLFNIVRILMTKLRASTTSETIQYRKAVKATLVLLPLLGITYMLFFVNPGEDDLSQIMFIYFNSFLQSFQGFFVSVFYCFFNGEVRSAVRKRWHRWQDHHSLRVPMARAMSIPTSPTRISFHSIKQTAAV
How it was run: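 Agonist peptides are added to suspended, freshly thawed CHO-K1 cells that stably carry the human receptor. Intracellular cAMP competes with d2-cAMP for a cryptate-tagged antibody, lowering the FRET signal. A variable-slope sigmoid curve is fitted to obtain EC50.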

[2] = target: T2, hCRHR1 (Homo sapiens, UniProt P34998); assay: HTRF cAMP assay, determination of hCRHR1 potency (peptide libraries 5 conc., purified peptides 11 conc.); format: cell-based
T2 sequence (P34998 24-415): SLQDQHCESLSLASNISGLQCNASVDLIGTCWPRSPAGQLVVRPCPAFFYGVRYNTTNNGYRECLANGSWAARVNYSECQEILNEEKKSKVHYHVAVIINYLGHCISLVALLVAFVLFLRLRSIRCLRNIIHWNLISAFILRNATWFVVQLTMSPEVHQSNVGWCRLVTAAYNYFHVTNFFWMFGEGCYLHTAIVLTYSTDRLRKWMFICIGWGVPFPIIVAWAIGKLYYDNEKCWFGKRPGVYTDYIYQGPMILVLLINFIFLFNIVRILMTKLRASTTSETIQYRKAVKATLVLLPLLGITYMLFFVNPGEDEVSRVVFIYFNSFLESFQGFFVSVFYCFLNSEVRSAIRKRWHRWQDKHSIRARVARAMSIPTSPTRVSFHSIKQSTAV
How it was run: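 CHO-K1 cells stably expressing human CRHR1, thawed from frozen stocks just before use, were stimulated in suspension with agonist peptides. cAMP was measured by HTRF competitive immunoassay (cryptate anti-cAMP antibody vs d2-cAMP).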

[3] = Table 3, matched molecular pairs X^38 L vs Nle, peptide library of Example 4, read-out: hCRHR2 pEC50 (converted)
[4] = Table 3, matched molecular pairs X^38 L vs Nle, peptide library of Example 4, read-out: hCRHR1 pEC50 (converted)

Row | EC50 [1, 3] [nM] | EC50 [2, 4] [nM] | other results | SMILES
1 | 0.2 | 63.1 | – | CCCC[C@H](NC(=O)[C@@H](NC(=O)[C@H](CCC(=O)O)NC(=O)[C@H](C)NC(=O)[C@H](CC(N)=O)NC(=O)[C@@H](NC(=O)[C@H](CCCCNC(=O)COCCOCCNC(=O)COCCOCCNC(=O)CC[C@H](NC(=O)CC[C@H](NC(=O)CCCCCCCCCCCCCCCCCCC(=O)O)C(=O)O)C(=O)O)NC(=O)[C@H](C)NC(=O)[C@H](CCC(N)=O)NC(=O)[C@H](CCC(N)=O)NC(=O)[C@H](CCCNC(=N)N)NC(=O)[C@H](CCC(N)=O)NC(=O)[C@H](C)NC(=O)[C@H](CCCNC(=N)N)NC(=O)[C@H](C)NC(=O)[C@H](CCCNC(=N)N)NC(=O)[C@H](C)NC(=O)[C@H](CCC(N)=O)NC(=O)[C@H](CCC(=O)O)NC(=O)[C@H](CC(C)C)NC(=O)[C@H](CC(C)C)NC(=O)[C@@H](NC(=O)[C@H](CCC(N)=O)NC(=O)[C@H](CC(C)C)NC(=O)[C@H](CC(C)C)NC(=O)CNC(=O)[C@@H](NC(=O)[C@@H]1CCCN1C(=O)[C@@H](NC(=O)[C@H](CC(=O)O)NC(=O)[C@H](CC(C)C)NC(=O)[C@H](CO)NC(=O)[C@H](CC(C)C)NC(=O)[C@@H](NC(=O)[C@@H](N)[C@@H](C)CC)C(C)C)C(C)C)[C@@H](C)CC)[C@@H](C)CC)[C@@H](C)O)[C@@H](C)CC)C(=O)N[C@@H](C)C(=O)N[C@@H](CCC(=O)O)C(=O)N[C@H](C(N)=O)C(C)C [SEQ ID NO: 47] (H-IVLSLDVPIGLLQILLEQARARAQRQQAK([AEEA-AEEA-γGlu-γGlu-C20 diacid])TNAEI[Nle]AEV-NH2)
2 | 0.501 | 39800 | – | CC[C@H](C)[C@H](N)C(=O)N[C@H](C(=O)N[C@@H](CC(C)C)C(=O)N[C@@H](CO)C(=O)N[C@@H](CC(C)C)C(=O)N[C@@H](CC(=O)O)C(=O)N[C@H](C(=O)N1CCC[C@H]1C(=O)N[C@H](C(=O)NCC(=O)N[C@@H](CC(C)C)C(=O)N[C@@H](CC(C)C)C(=O)N[C@@H](CCC(N)=O)C(=O)N[C@H](C(=O)N[C@@H](CC(C)C)C(=O)N[C@@H](CC(C)C)C(=O)N[C@@H](CCC(=O)O)C(=O)N[C@@H](CCC(N)=O)C(=O)N[C@@H](C)C(=O)N[C@@H](CCCNC(=N)N)C(=O)N[C@@H](C)C(=O)N[C@@H](CCC(=O)O)C(=O)N[C@@H](C)C(=O)N[C@@H](C)C(=O)N[C@@H](CCCNC(=N)N)C(=O)N[C@@H](CCC(=O)O)C(=O)N[C@@H](CCC(N)=O)C(=O)N[C@@H](C)C(=O)N[C@@H](CCCCNC(=O)COCCOCCNC(=O)COCCOCCNC(=O)CC[C@H](NC(=O)CC[C@H](NC(=O)CCCCCCCCCCCCCCCCCCC(=O)O)C(=O)O)C(=O)O)C(=O)N[C@H](C(=O)N[C@@H](CC(N)=O)C(=O)N[C@@H](C)C(=O)N[C@@H](CCC(=O)O)C(=O)N[C@H](C(=O)N[C@@H](CC(C)C)C(=O)N[C@@H](C)C(=O)N[C@@H](CCC(=O)O)C(=O)N[C@H](C(N)=O)[C@@H](C)CC)[C@@H](C)CC)[C@@H](C)O)[C@@H](C)CC)[C@@H](C)CC)C(C)C)C(C)C [SEQ ID NO: 23] (H-IVLSLDVPIGLLQILLEQARAEAAREQAK([AEEA-AEEA-γGlu-γGlu-C20 diacid])TNAEILAEI-NH2)
3 | 0.631 | 15800 | – | CC[C@H](C)[C@H](N)C(=O)N[C@H](C(=O)N[C@@H](CC(C)C)C(=O)N[C@@H](CO)C(=O)N[C@@H](CC(C)C)C(=O)N[C@@H](CC(=O)O)C(=O)N[C@H](C(=O)N1CCC[C@H]1C(=O)N[C@H](C(=O)NCC(=O)N[C@@H](CC(C)C)C(=O)N[C@@H](CC(C)C)C(=O)N[C@@H](CCC(N)=O)C(=O)N[C@H](C(=O)N[C@@H](CC(C)C)C(=O)N[C@@H](CC(C)C)C(=O)N[C@@H](CCC(=O)O)C(=O)N[C@@H](CCC(N)=O)C(=O)N[C@@H](C)C(=O)N[C@@H](CCCNC(=N)N)C(=O)N[C@@H](C)C(=O)N[C@@H](CCC(=O)O)C(=O)N[C@@H](CO)C(=O)N[C@@H](C)C(=O)N[C@@H](CCCNC(=N)N)C(=O)N[C@@H](CCC(=O)O)C(=O)N[C@@H](CCC(N)=O)C(=O)N[C@@H](C)C(=O)N[C@@H](CCCCNC(=O)COCCOCCNC(=O)COCCOCCNC(=O)CC[C@H](NC(=O)CC[C@H](NC(=O)CCCCCCCCCCCCCCCCCCC(=O)O)C(=O)O)C(=O)O)C(=O)N[C@H](C(=O)N[C@@H](CC(N)=O)C(=O)N[C@@H](C)C(=O)N[C@@H](CCC(=O)O)C(=O)N[C@H](C(=O)N[C@@H](CC(C)C)C(=O)N[C@@H](C)C(=O)N[C@@H](CCC(=O)O)C(=O)N[C@H](C(N)=O)C(C)C)[C@@H](C)CC)[C@@H](C)O)[C@@H](C)CC)[C@@H](C)CC)C(C)C)C(C)C [SEQ ID NO: 41] (H-IVLSLDVPIGLLQILLEQARAESAREQAK([AEEA-AEEA-γGlu-γGlu-C20 diacid])TNAEILAEV-NH2)
4 | – | – | Selectivity ratio (hCRHR1/ hCRHR2) ([1]; hCRHR1-EC50/hCRHR2-EC50): >208; EC50 ([1]; purified peptides, CHO-K1 cells stably expressing hCRHR2, cAMP HTRF, read-out: hCRHR2 EC50): 24 nM; EC50 ([2]; purified peptides, CHO-K1 cells stably expressing hCRHR1, cAMP HTRF, read-out: hCRHR1 EC50): > 5000 nM | CC[C@H](C)[C@H](N)C(=O)N[C@H](C(=O)N[C@@H](CC(C)C)C(=O)N[C@@H](CO)C(=O)N[C@@H](CC(C)C)C(=O)N[C@@H](CC(=O)O)C(=O)N[C@H](C(=O)N1CCC[C@H]1C(=O)N[C@H](C(=O)NCC(=O)N[C@@H](CC(C)C)C(=O)N[C@@H](CCCCNC(=O)COCCOCCNC(=O)COCCOCCNC(=O)CC[C@H](NC(=O)CC[C@H](NC(=O)CCCCCCCCCCCCCCCCCCC(=O)O)C(=O)O)C(=O)O)C(=O)N[C@@H](CCC(N)=O)C(=O)N[C@H](C(=O)N[C@@H](CC(C)C)C(=O)N[C@@H](CC(C)C)C(=O)N[C@@H](CCC(=O)O)C(=O)N[C@@H](CCC(N)=O)C(=O)N[C@@H](C)C(=O)N[C@@H](CCCNC(=N)N)C(=O)N[C@@H](C)C(=O)N[C@@H](CCCNC(=N)N)C(=O)N[C@@H](C)C(=O)N[C@@H](C)C(=O)N[C@@H](CCCNC(=N)N)C(=O)N[C@@H](CCC(=O)O)C(=O)N[C@@H](CCC(N)=O)C(=O)N[C@@H](C)C(=O)N[C@H](C(=O)N[C@H](C(=O)N[C@@H](CC(N)=O)C(=O)N[C@@H](C)C(=O)N[C@@H](CCC(=O)O)C(=O)N[C@H](C(=O)N[C@@H](CC(C)C)C(=O)N[C@@H](C)C(=O)N[C@@H](CCC(=O)O)C(=O)N[C@H](C(N)=O)C(C)C)[C@@H](C)CC)[C@@H](C)O)[C@@H](C)O)[C@@H](C)CC)[C@@H](C)CC)C(C)C)C(C)C [SEQ ID NO: 261] (H-IVLSLDVPIGLK([AEEA-AEEA-γGlu-γGlu-C20 diacid])QILLEQARARAAREQATTNAEILAEV-NH2)
5 | – | – | EC50 ([1]; library peptides, matched molecular pairs L vs Nle in position X^38, read-out: Potency hCRHR2 pEC50 (converted)): 0.631 nM; EC50 ([2]; library peptides, matched molecular pairs L vs Nle in position X^38, read-out: Potency hCRHR1 pEC50 (converted)): 1580 nM | CC[C@H](C)[C@H](N)C(=O)N[C@H](C(=O)N[C@@H](CC(C)C)C(=O)N[C@@H](CO)C(=O)N[C@@H](CC(C)C)C(=O)N[C@@H](CC(=O)O)C(=O)N[C@H](C(=O)N1CCC[C@H]1C(=O)N[C@H](C(=O)NCC(=O)N[C@@H](CC(C)C)C(=O)N[C@@H](CC(C)C)C(=O)N[C@@H](CCC(N)=O)C(=O)N[C@H](C(=O)N[C@@H](CC(C)C)C(=O)N[C@@H](CC(C)C)C(=O)N[C@@H](CCC(=O)O)C(=O)N[C@@H](CCC(N)=O)C(=O)N[C@@H](C)C(=O)N[C@@H](CCCNC(=N)N)C(=O)N[C@@H](C)C(=O)N[C@@H](CCCNC(=N)N)C(=O)N[C@@H](CCC(N)=O)C(=O)N[C@@H](C)C(=O)N[C@@H](CCCNC(=N)N)C(=O)N[C@@H](CCC(=O)O)C(=O)N[C@@H](CCC(N)=O)C(=O)N[C@@H](C)C(=O)N[C@@H](CCCCNC(=O)COCCOCCNC(=O)COCCOCCNC(=O)CC[C@H](NC(=O)CC[C@H](NC(=O)CCCCCCCCCCCCCCCCCCC(=O)O)C(=O)O)C(=O)O)C(=O)N[C@H](C(=O)N[C@@H](CC(N)=O)C(=O)N[C@@H](C)C(=O)N[C@@H](CCC(=O)O)C(=O)N[C@H](C(=O)N[C@@H](CC(C)C)C(=O)N[C@@H](C)C(=O)N[C@@H](CCC(=O)O)C(=O)N[C@H](C(N)=O)C(C)C)[C@@H](C)CC)[C@@H](C)O)[C@@H](C)CC)[C@@H](C)CC)C(C)C)C(C)C [compound 52] (H-IVLSLDVPIGLLQILLEQARARQAREQAK([AEEA-AEEA-γGlu-γGlu-C20 diacid])TNAEILAEV-NH2)
